Test results published in US20030040479A1, “Rotational intrathecal analgesia method and device” (Omeros Corporation, priority 2001, published 2003).

Legend:
Format in all cases: in vivo
male Sprague-Dawley rats [1] = assay: Rat hindpaw withdrawal latency (HWL) to mechanical stimulation, Randall Selitto Test; conditions: for % Changes of HWL to Mechanical Stimulation: 10 minutes after intrathecal injection
male Sprague-Dawley rats [2] = assay: Rat hindpaw withdrawal latency (HWL) to thermal stimulation, hot-plate test; conditions: for % Changes of HWL to Thermal Stimulation: 10 minutes after intrathecal injection
male Sprague-Dawley rats [3] = assay: Development of tolerance to intrathecal analgesia in rat HWL tests (thermal and mechanical); conditions: intrathecal every 12 hrs
Experimental: A polyethylene catheter (Intramedic PE 10) was permanently implanted intrathecally with the inner tip at L3 to L5 in each animal. Rats displaying movement disorders following placement of the catheter were not used in the study. Injection volume was 10 μL of drug solution followed by 10 μL of 0.9% saline to flush the catheter. Intrathecal injections were performed every 12 hrs (morning and night).
In the morphine only group, 8 μg morphine HCl was injected every 12 hrs until complete tolerance developed and in the nociceptin only group, 10 nmol nociceptin was injected every 12 hrs until complete tolerance developed. These doses were chosen from previous studies that determined an equianalgesic dosing for these two drugs. […]
Solutions for intrathecal injection were prepared with sterilized saline (0.9%). […] The hindpaw withdrawal latency (HWL) was measured for both thermal and mechanical stimulation. […] A wedge shaped probe with a loading rate of 30 g/second was applied to the dorsal surface of the manually handled hindpaw and the mechanical stimulation required to initiate the struggle response was assessed. […] The HWLs were measured 15 min after the second intrathecal injection on a daily basis. […]

[4] = day 1, drug alone, intrathecal, text summary of both hindpaws

For CN1CC[C@]23c4c5ccc(O)c4O[C@H]2[C@@H](O)C=C[C@H]3[C@H]1C5 [Morphine, morphine], the “HWL increase using mechanical stimulation” value (male Sprague-Dawley rats [1]; [4]) was ~55%, the “% Changes of HWL to Mechanical Stimulation” value (male Sprague-Dawley rats [1]; day 1, left hindpaw) was 53.99 ± 2.96% and the “% Changes of HWL to Mechanical Stimulation” value (male Sprague-Dawley rats [1]; day 1, right hindpaw) was 56.04 ± 3.38%. The “% Changes of HWL to Mechanical Stimulation” value (male Sprague-Dawley rats [1]; day 2, left hindpaw) was 47.69 ± 2.54%, the “% Changes of HWL to Mechanical Stimulation” value (male Sprague-Dawley rats [1]; day 2, right hindpaw) was 46.74 ± 2.52% and the “% Changes of HWL to Mechanical Stimulation” value (male Sprague-Dawley rats [1]; day 3, left hindpaw) was 33.85 ± 1.60%. The “% Changes of HWL to Mechanical Stimulation” value (male Sprague-Dawley rats [1]; day 3, right hindpaw) was 33.44 ± 1.03%, the “% Changes of HWL to Mechanical Stimulation” value (male Sprague-Dawley rats [1]; day 4, left hindpaw) was 31.37 ± 2.02% and the “% Changes of HWL to Mechanical Stimulation” value (male Sprague-Dawley rats [1]; day 4, right hindpaw) was 28.84 ± 2.73%. The “% Changes of HWL to Mechanical Stimulation” value (male Sprague-Dawley rats [1]; day 5, left hindpaw) was 15.30 ± 1.39%, the “% Changes of HWL to Mechanical Stimulation” value (male Sprague-Dawley rats [1]; day 5, right hindpaw) was 16.54 ± 1.26% and the “% Changes of HWL to Mechanical Stimulation” value (male Sprague-Dawley rats [1]; day 6, left hindpaw) was 3.26 ± 1.86%. The “% Changes of HWL to Mechanical Stimulation” value (male Sprague-Dawley rats [1]; day 6, right hindpaw) was 2.72 ± 1.94%, the “HWL increase using thermal stimulation” value (male Sprague-Dawley rats [2]; [4]) was “approximately 67%” and the “% Changes of HWL to Thermal Stimulation” value (male Sprague-Dawley rats [2]; day 1, left hindpaw) was 66.26 ± 2.20%. For the same compound, the “% Changes of HWL to Thermal Stimulation” value (male Sprague-Dawley rats [2]; day 1, right hindpaw) was 66.66 ± 1.51%, the “% Changes of HWL to Thermal Stimulation” value (male Sprague-Dawley rats [2]; day 2, left hindpaw) was 61.25 ± 3.05% and the “% Changes of HWL to Thermal Stimulation” value (male Sprague-Dawley rats [2]; day 2, right hindpaw) was 63.11 ± 0.64%. The “% Changes of HWL to Thermal Stimulation” value (male Sprague-Dawley rats [2]; day 3, left hindpaw) was 51.66 ± 1.73%, the “% Changes of HWL to Thermal Stimulation” value (male Sprague-Dawley rats [2]; day 3, right hindpaw) was 48.74 ± 2.40% and the “% Changes of HWL to Thermal Stimulation” value (male Sprague-Dawley rats [2]; day 4, left hindpaw) was 43.63 ± 1.38%. The “% Changes of HWL to Thermal Stimulation” value (male Sprague-Dawley rats [2]; day 4, right hindpaw) was 42.45 ± 1.70%, the “% Changes of HWL to Thermal Stimulation” value (male Sprague-Dawley rats [2]; day 5, left hindpaw) was 23.85 ± 1.03% and the “% Changes of HWL to Thermal Stimulation” value (male Sprague-Dawley rats [2]; day 5, right hindpaw) was 25.07 ± 2.07%. For the same compound, the “% Changes of HWL to Thermal Stimulation” value (male Sprague-Dawley rats [2]; day 6, left hindpaw) was −1.30 ± 2.36%, the “% Changes of HWL to Thermal Stimulation” value (male Sprague-Dawley rats [2]; day 6, right hindpaw) was 0.51 ± 1.61% and the “day by which complete (total) tolerance exists” value (male Sprague-Dawley rats [3]) was 6 days.
